Reference: the Kinase Knowledgebase extract (Sharma et al. 2016)

Columns and labels:
EGFR = EGFR (UniProt P00533)
CDK2 (human) [1] = target: CDK2 (human) (UniProt P24941); details: A431
CDK2 = CDK2 (UniProt P24941); test: Enzyme Assay
CDK2 (human) [2] = target: CDK2 (human) (UniProt P24941); test: Cell-Based Assay

Chain of EGFR (P00533 whole entry, looked up): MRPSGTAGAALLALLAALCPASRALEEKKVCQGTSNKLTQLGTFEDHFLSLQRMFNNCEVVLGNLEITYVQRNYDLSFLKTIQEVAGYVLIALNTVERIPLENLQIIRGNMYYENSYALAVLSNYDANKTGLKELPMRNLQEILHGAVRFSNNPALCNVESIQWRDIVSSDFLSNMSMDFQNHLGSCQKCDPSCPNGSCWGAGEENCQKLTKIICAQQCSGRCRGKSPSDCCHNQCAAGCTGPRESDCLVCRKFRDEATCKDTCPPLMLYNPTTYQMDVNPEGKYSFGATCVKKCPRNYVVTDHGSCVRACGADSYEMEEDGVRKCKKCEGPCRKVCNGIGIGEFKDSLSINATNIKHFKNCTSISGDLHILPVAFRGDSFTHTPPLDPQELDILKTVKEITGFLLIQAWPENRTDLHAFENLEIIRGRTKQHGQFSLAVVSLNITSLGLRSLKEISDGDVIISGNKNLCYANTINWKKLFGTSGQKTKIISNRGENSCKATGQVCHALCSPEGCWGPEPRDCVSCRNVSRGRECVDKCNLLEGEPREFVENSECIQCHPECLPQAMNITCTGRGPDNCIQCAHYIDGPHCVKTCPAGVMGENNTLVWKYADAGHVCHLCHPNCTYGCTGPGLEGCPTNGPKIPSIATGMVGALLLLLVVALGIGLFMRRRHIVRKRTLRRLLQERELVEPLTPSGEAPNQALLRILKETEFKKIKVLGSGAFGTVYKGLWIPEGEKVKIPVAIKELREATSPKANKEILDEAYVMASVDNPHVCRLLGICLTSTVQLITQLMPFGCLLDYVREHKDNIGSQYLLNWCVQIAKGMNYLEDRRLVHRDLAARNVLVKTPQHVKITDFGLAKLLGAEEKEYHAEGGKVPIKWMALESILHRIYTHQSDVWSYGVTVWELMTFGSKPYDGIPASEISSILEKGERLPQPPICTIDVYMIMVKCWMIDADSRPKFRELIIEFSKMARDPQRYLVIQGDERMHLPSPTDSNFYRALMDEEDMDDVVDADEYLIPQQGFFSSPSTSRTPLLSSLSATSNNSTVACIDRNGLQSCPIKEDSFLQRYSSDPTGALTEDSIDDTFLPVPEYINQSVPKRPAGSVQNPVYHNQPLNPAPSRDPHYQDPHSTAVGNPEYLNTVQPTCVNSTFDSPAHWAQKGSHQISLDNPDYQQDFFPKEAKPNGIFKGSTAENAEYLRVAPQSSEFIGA

OCCN(CCO)c1nc(Nc2cccc(F)c2)c2cn[nH]c2n1
IC50 (EGFR): > 100 µM | GI50 (CDK2 (human) [1]): 54.3 µM | IC50 (CDK2): 0.9 µM | GI50 (CDK2 (human) [2]; hct-116): > 100 µM | GI50 (CDK2 (human) [2]; snu638): > 100 µM

OCCN(CCO)c1nc(Nc2cccc(Br)c2)c2cn[nH]c2n1
IC50 (EGFR): 36.3 µM | GI50 (CDK2 (human) [1]): > 100 µM | IC50 (CDK2): 3.8 µM | GI50 (CDK2 (human) [2]; hct-116): > 100 µM | GI50 (CDK2 (human) [2]; snu638): 38.9 µM

Cn1ncc2c(NCc3ccccc3)nc(N(CCO)CCO)nc21
IC50 (EGFR): 77.6 µM | GI50 (CDK2 (human) [1]): 24.3 µM | IC50 (CDK2): > 100 µM | GI50 (CDK2 (human) [2]; hct-116): 53.4 µM | GI50 (CDK2 (human) [2]; snu638): 25.3 µM

COc1cccc(Nc2nc(NCCO)nc3c2cnn3C(C)C)c1
IC50 (EGFR): > 100 µM | GI50 (CDK2 (human) [1]): 13.1 µM | IC50 (CDK2): > 100 µM | GI50 (CDK2 (human) [2]; hct-116): 21.4 µM | GI50 (CDK2 (human) [2]; snu638): 7.55 µM

OCCNc1nc(Nc2cccc(F)c2)c2cn[nH]c2n1
IC50 (EGFR): 66.1 µM | GI50 (CDK2 (human) [1]): 28.9 µM | IC50 (CDK2): 0.5 µM | GI50 (CDK2 (human) [2]; hct-116): > 100 µM | GI50 (CDK2 (human) [2]; snu638): > 100 µM

Cn1ncc2c(NCc3ccc(N)cc3)nc(NCCO)nc21
IC50 (EGFR): > 100 µM | GI50 (CDK2 (human) [1]): 58.9 µM | IC50 (CDK2): > 100 µM | GI50 (CDK2 (human) [2]; hct-116): > 100 µM | GI50 (CDK2 (human) [2]; snu638): 96.8 µM

CC(C)n1ncc2c(NCc3ccc(N)cc3)nc(NCCO)nc21
IC50 (EGFR): > 100 µM | GI50 (CDK2 (human) [1]): 55.3 µM | IC50 (CDK2): > 100 µM | GI50 (CDK2 (human) [2]; hct-116): > 100 µM | GI50 (CDK2 (human) [2]; snu638): 38.2 µM

COc1cccc(Nc2nc(N(CCO)CCO)nc3[nH]ncc23)c1
IC50 (EGFR): > 100 µM | GI50 (CDK2 (human) [1]): > 100 µM | IC50 (CDK2): 10.2 µM | GI50 (CDK2 (human) [2]; hct-116): > 100 µM | GI50 (CDK2 (human) [2]; snu638): > 100 µM

COc1cccc2c1C(=O)c1c(O)c3c(c(O)c1C2=O)C[C@@](O)(C(=O)CO)CC3O[C@H]1C[C@H](N)[C@H](O)[C@H](C)O1 (some centres not stated)
GI50 (CDK2 (human) [1]): 0.18 µM | GI50 (CDK2 (human) [2]; hct-116): 0.13 µM

CC(C)n1ncc2c(NCc3ccccc3)nc(N(CCO)CCO)nc21
IC50 (EGFR): > 100 µM | GI50 (CDK2 (human) [1]): 21.9 µM | IC50 (CDK2): > 100 µM | GI50 (CDK2 (human) [2]; hct-116): 47.7 µM | GI50 (CDK2 (human) [2]; snu638): 26.1 µM

Cn1ncc2c(Nc3cccc(F)c3)nc(N(CCO)CCO)nc21
IC50 (EGFR): 29.5 µM | GI50 (CDK2 (human) [1]): 3.94 µM | IC50 (CDK2): 36.3 µM | GI50 (CDK2 (human) [2]; hct-116): 8.89 µM | GI50 (CDK2 (human) [2]; snu638): 2.56 µM

Cn1ncc2c(NCc3ccc([N+](=O)[O-])cc3)nc(NCCO)nc21
IC50 (EGFR): > 100 µM | GI50 (CDK2 (human) [1]): 23.4 µM | IC50 (CDK2): 17.8 µM | GI50 (CDK2 (human) [2]; hct-116): 48.5 µM | GI50 (CDK2 (human) [2]; snu638): 24.9 µM

CC(C)n1ncc2c(NCc3ccc([N+](=O)[O-])cc3)nc(NCCO)nc21
IC50 (EGFR): > 100 µM | GI50 (CDK2 (human) [1]): 32 µM | IC50 (CDK2): 46.8 µM | GI50 (CDK2 (human) [2]; hct-116): 77.7 µM | GI50 (CDK2 (human) [2]; snu638): 23.4 µM

Cn1ncc2c(Nc3cccc(Br)c3)nc(N(CCO)CCO)nc21
IC50 (EGFR): > 100 µM | GI50 (CDK2 (human) [1]): 2.94 µM | IC50 (CDK2): > 100 µM | GI50 (CDK2 (human) [2]; hct-116): 16.6 µM | GI50 (CDK2 (human) [2]; snu638): 6.2 µM

OCCNc1nc(NCc2ccccc2)c2cn[nH]c2n1
IC50 (EGFR): 93.3 µM | GI50 (CDK2 (human) [1]): 26.6 µM | IC50 (CDK2): 29.5 µM | GI50 (CDK2 (human) [2]; hct-116): 4.5 µM | GI50 (CDK2 (human) [2]; snu638): 20.8 µM

CC(C)n1ncc2c(Nc3cccc(Br)c3)nc(N(CCO)CCO)nc21
IC50 (EGFR): > 100 µM | GI50 (CDK2 (human) [1]): 2.58 µM | IC50 (CDK2): 29.5 µM | GI50 (CDK2 (human) [2]; hct-116): 5.06 µM | GI50 (CDK2 (human) [2]; snu638): 4.1 µM

CC(C)n1ncc2c(Nc3cccc(F)c3)nc(N(CCO)CCO)nc21
IC50 (EGFR): > 100 µM | GI50 (CDK2 (human) [1]): 6.25 µM | IC50 (CDK2): 47.9 µM | GI50 (CDK2 (human) [2]; hct-116): 10.9 µM | GI50 (CDK2 (human) [2]; snu638): 7.95 µM

OCCNc1nc(Nc2cccc(Br)c2)c2cn[nH]c2n1
IC50 (EGFR): > 100 µM | GI50 (CDK2 (human) [1]): > 100 µM | IC50 (CDK2): 8.1 µM | GI50 (CDK2 (human) [2]; hct-116): > 100 µM | GI50 (CDK2 (human) [2]; snu638): 69.2 µM

CC(C)n1ncc2c(Nc3cccc(Br)c3)nc(NCCO)nc21
IC50 (EGFR): > 100 µM | GI50 (CDK2 (human) [1]): 2.19 µM | IC50 (CDK2): 28.2 µM | GI50 (CDK2 (human) [2]; hct-116): 6.46 µM | GI50 (CDK2 (human) [2]; snu638): 4.28 µM

COc1cccc(Nc2nc(N(CCO)CCO)nc3c2cnn3C)c1
IC50 (EGFR): > 100 µM | GI50 (CDK2 (human) [1]): 12.9 µM | IC50 (CDK2): 57.5 µM | GI50 (CDK2 (human) [2]; hct-116): 17.2 µM | GI50 (CDK2 (human) [2]; snu638): 10.5 µM

Cn1ncc2c(NCc3ccccc3)nc(NCCO)nc21
IC50 (EGFR): > 100 µM | GI50 (CDK2 (human) [1]): 42.7 µM | IC50 (CDK2): > 100 µM | GI50 (CDK2 (human) [2]; hct-116): > 100 µM | GI50 (CDK2 (human) [2]; snu638): 37.1 µM

Cn1ncc2c(Nc3cccc(F)c3)nc(NCCO)nc21
IC50 (EGFR): > 100 µM | GI50 (CDK2 (human) [1]): 16.3 µM | IC50 (CDK2): 21.4 µM | GI50 (CDK2 (human) [2]; hct-116): 28.2 µM | GI50 (CDK2 (human) [2]; snu638): 15.8 µM

OCCN(CCO)c1nc(NCc2ccccc2)c2cn[nH]c2n1
IC50 (EGFR): 55 µM | GI50 (CDK2 (human) [1]): > 100 µM | IC50 (CDK2): 37.2 µM | GI50 (CDK2 (human) [2]; hct-116): 93.6 µM | GI50 (CDK2 (human) [2]; snu638): 29 µM

CC(C)n1ncc2c(NCc3ccccc3)nc(NCCO)nc21
IC50 (EGFR): > 100 µM | GI50 (CDK2 (human) [1]): 35.6 µM | IC50 (CDK2): > 100 µM | GI50 (CDK2 (human) [2]; hct-116): 57.6 µM | GI50 (CDK2 (human) [2]; snu638): 25.2 µM

COc1cccc(Nc2nc(NCCO)nc3[nH]ncc23)c1
IC50 (EGFR): > 100 µM | GI50 (CDK2 (human) [1]): > 100 µM | IC50 (CDK2): 3.1 µM | GI50 (CDK2 (human) [2]; hct-116): 38.2 µM | GI50 (CDK2 (human) [2]; snu638): 17.1 µM

COc1cccc(Nc2nc(N(CCO)CCO)nc3c2cnn3C(C)C)c1
IC50 (EGFR): > 100 µM | GI50 (CDK2 (human) [1]): 4.43 µM | IC50 (CDK2): 66 µM | GI50 (CDK2 (human) [2]; hct-116): 12.6 µM | GI50 (CDK2 (human) [2]; snu638): 7.92 µM

COc1cccc(Nc2nc(NCCO)nc3c2cnn3C)c1
IC50 (EGFR): > 100 µM | GI50 (CDK2 (human) [1]): 19.1 µM | IC50 (CDK2): > 100 µM | GI50 (CDK2 (human) [2]; hct-116): 90.4 µM | GI50 (CDK2 (human) [2]; snu638): 21.7 µM

Cn1ncc2c(Nc3cccc(Br)c3)nc(NCCO)nc21
IC50 (EGFR): 47.9 µM | GI50 (CDK2 (human) [1]): 31.9 µM | IC50 (CDK2): > 100 µM | GI50 (CDK2 (human) [2]; hct-116): > 100 µM | GI50 (CDK2 (human) [2]; snu638): 18.2 µM

CC(C)n1ncc2c(Nc3cccc(F)c3)nc(NCCO)nc21
IC50 (EGFR): > 100 µM | GI50 (CDK2 (human) [1]): 7.8 µM | IC50 (CDK2): 49 µM | GI50 (CDK2 (human) [2]; hct-116): 19.3 µM | GI50 (CDK2 (human) [2]; snu638): 7.57 µM
